Data from article PMC6268022, “Substituted N-Benzylpyrazine-2-carboxamides: Synthesis and Biological Evaluation ^†” (Molecules, 2012).
Converted amounts (≈) assume the structure as drawn. “And” between values parts separate entries of the source, which are not always exact repeats. Equal entries are not always repeated. Where two headings read alike, the source gives them in different places.

Experiments:
[1] = system: M. avium CNCTC My 152/73; assay: In vitro antimycobacterial microdilution panel method; assay type: cell-based; conditions: Mycobacterium avium, 336 h; CNCTC My 152/73, pH 6.0, 14 days
[2] = system: M. kansasii CNCTC My 235/80; assay: as above; assay type: cell-based; conditions: Mycobacterium kansasii, 144 h; CNCTC My 235/80, pH 6.0, 6 days
[3] = HPLC lipophilicity determination (capacity factor k / log k); conditions: RP-HPLC, C18, MeOH 70%/H2O 30%, 30 °C
Procedure: The separation process was controlled by Agilent ChemStation, version B.04.02 extended by spectral module (Agilent Technologies Inc.). A solution of MeOH (HPLC grade, 70%) with H2O (HPLC-Milli-Q Grade, 30%) was used as mobile phase. The total flow of the column was 1.0 mL/min, injection 20 µL, column temperature 30 °C. 210 nm as detection wavelength and 270 nm as monitor wavelength were chosen. The KI methanol solution was used for the dead time (TD) determination. Retention times (TR) of synthesized compounds were measured in minutes. The capacity factors k were calculated using Microsoft Excel according to formula k = (TR − TD)/TD, where TR is the retention time of the solute and TD denotes the dead time obtained via an unretained analyte. Log k, calculated from the capacity factor k, is used as the lipophilicity index converted to log P scale.

[4] = system: M. tuberculosis H37Rv CNCTC My 331/88; assay: In vitro antimycobacterial microdilution panel method; assay type: cell-based; conditions: Mycobacterium tuberculosis, 336 h
[5] = system: photosynthetic electron transport (PET) in spinach chloroplasts; assay: Inhibition of photosynthetic electron transport (oxygen evolution rate) in spinach chloroplasts; assay type: biochemical, Spinacia oleracea L.; conditions: DCPIP photoreduction, pH 7.2
Procedure: All studied compounds were evaluated for their photosynthetic electron transport (PET) inhibition in spinach chloroplasts, which was reflected in the inhibition of oxygen evolution rate. The photosynthesis-inhibiting activity of the compounds has been expressed as IC50 values. Compounds 4, 5, 7 and 8 were not tested due to their low solubility in tested medium.
Chloroplasts were prepared from spinach (Spinacia oleracea L.) according to Masarovičová and Kráľová [31]. The inhibition of photosynthetic electron transport (PET) in spinach chloroplasts was determined spectrophotometrically (Genesys 6, Thermo Scientific, Madison, WI, USA) using an artificial electron acceptor 2,6-dichlorophenol-indophenol (DCPIP) according to Kráľová et al. and the rate of photosynthetic electron transport (PET) was monitored as a photo-reduction of DCPIP. The measurements were carried out in a phosphate buffer (0.02 mol/L, pH 7.2) containing sucrose (0.4 mol/L), MgCl2 (0.005 mol/L) and NaCl (0.015 mol/L). The chlorophyll content was 30 mg/L in these experiments and the samples were irradiated (~100 W/m^2) from a 10 cm distance with halogen lamp (250 W) using a 4 cm water filter to prevent warming of the samples (suspension temperature 22 °C). The studied compounds were dissolved in DMSO due to their limited water solubility. […] The inhibitory efficiency of the studied compounds was expressed as the IC50 values, i.e., molar concentration of the compounds causing 50% decrease in the oxygen evolution relative to the untreated control.

[6] = system: M. avium CNCTC My 80/72; assay: In vitro antimycobacterial microdilution panel method; assay type: cell-based; conditions: Mycobacterium avium, 336 h; CNCTC My 80/72, pH 6.0, 14 days
[7] = system: Trichophyton mentagrophytes 445; assay: In vitro antifungal microdilution broth method; assay type: cell-based; conditions: RPMI 1640 pH 7.0, 35 °C; for MIC: read-out: TM MIC
Procedure: The Department of Medical and Biological Sciences at the Faculty of Pharmacy in Hradec Králové, Charles University in Prague, Czech Republic, performed the antifungal susceptibility assays, which was carried out using microdilution broth method. Compounds were dissolved in DMSO and diluted in a twofold manner with RPMI 1640 medium with glutamine buffered to pH 7.0 (3-morpholinopropane-1-sulfonic acid). […] Drug-free controls were included. […] The MICs were determined after 24 and 48 h, respectively after 72 and 120 h for Trichophyton mentagrophytes (TM), of static incubation in dark at 35 °C. Tested species: […]

[8] = system: pigment-protein complexes in photosystem 2; assay: Fluorescence of chlorophyll a in spinach chloroplasts; assay type: biochemical, Spinacia oleracea L.; conditions: λex = 436 nm, 0-0.42 mmol/L
Text: The effects of the studied compounds on the photosynthetic apparatus of spinach chloroplasts were investigated by studying chlorophyll a (Chla) fluorescence. […] The extent of perturbation of chlorophyll a-protein complexes in the thylakoid membrane was reflected as decreased fluorescence of the pigment (see Figure 3B). Similar decrease of Chla fluorescence in plant chloroplasts was also observed previously after treatment with substituted benzanilides and salicyanilides. The fluorescence emission spectra of chlorophyll a (Chla) and aromatic amino acids in spinach chloroplasts were recorded on fluorescence spectrophotometer F-2000 (Hitachi, Tokyo, Japan) using excitation wavelength λex = 436 nm for monitoring fluorescence of Chla and λex = 275 nm for monitoring fluorescence of aromatic amino acids, excitation slit 20 nm and emission slit 10 nm. The samples were kept in the dark 2 min before measuring. The phosphate buffer used for dilution of the chloroplast suspension was the same as described above. Due to low aqueous solubility the compounds were added to a chloroplast suspension in DMSO solution. The DMSO concentration in all samples was the same as in the control (10%). The chlorophyll concentration in chloroplast suspension was 10 mg/L.

[9] = system: aromatic amino acids in the proteins of spinach chloroplasts situated in PS 2; assay: Fluorescence of aromatic amino acids in spinach chloroplasts; assay type: biochemical, Spinacia oleracea L.; conditions: λex = 275 nm, 0-0.11 mmol/L
Text: Figure 4 presents fluorescence emission spectra of aromatic amino acids of untreated spinach chloroplasts and of chloroplasts treated with increasing concentrations of compound 6 (see Figure 4A) as well as dependence of fluorescence intensity of chlorophyll a on concentration of compounds 2 (squares), 11 (triangles) and 6 (circles) (see Figure 4B). Binding of these compounds to aromatic amino acids occurring in photosynthetic proteins contribute to PET inhibition. The fluorescence emission spectra of chlorophyll a (Chla) and aromatic amino acids in spinach chloroplasts were recorded on fluorescence spectrophotometer F-2000 (Hitachi, Tokyo, Japan) using excitation wavelength λex = 436 nm for monitoring fluorescence of Chla and λex = 275 nm for monitoring fluorescence of aromatic amino acids, excitation slit 20 nm and emission slit 10 nm. The samples were kept in the dark 2 min before measuring. The phosphate buffer used for dilution of the chloroplast suspension was the same as described above. Due to low aqueous solubility the compounds were added to a chloroplast suspension in DMSO solution. The DMSO concentration in all samples was the same as in the control (10%). The chlorophyll concentration in chloroplast suspension was 10 mg/L.

[10] = system: photosynthetic electron transport (PET) in spinach chloroplasts; design: method as in earlier work; conditions: standard, read-out: IC50 (PET inhibition); cited from earlier work
[11] = MIC with respect to molecular weight, Šula's medium pH 6.0, 14 days, read-out: MIC M. tuberculosis H37Rv (value in parentheses)
[12] = Šula's medium pH 6.0, 37 °C, 14 days, read-out: MIC M. tuberculosis H37Rv
[13] = Trichophyton mentagrophytes, 445, 72 h, pH 7, evaluated after 72 h
[14] = Trichophyton mentagrophytes, 445, 120 h, pH 7, evaluated after 120 h

Structure (SMILES)	MIC [1]	MIC [2]	log k [3]	MIC [4, 11]	MIC [4, 12]	IC50 [5]	MIC [6]	MIC [7, 13]	MIC [7, 14]	chlorophyll a fluorescence emission [8]	TM MIC ([7]; evaluated after 72 h)	fluorescence of aromatic amino acids [9]	IC50 [10]
O=C(NCc1ccccc1)c1cnc(Cl)cn1 [Compound 1, N-Benzyl-5-chloropyrazine-2-carboxamide]	100 µg/mL (≈ 404 µM)	100 µg/mL (≈ 404 µM)	0.1862	100 µM	25 µg/mL	1620 µM	100 µg/mL (≈ 404 µM)	125 µM (≈ 31 µg/mL)	125 µM (≈ 31 µg/mL)	–	–	–	–
O=C(NCc1cccc(C(F)(F)F)c1)c1cnc(Cl)cn1 [Compound 2, 5-Chloro-N-(3-trifluoromethylbenzyl)pyrazine-2-carboxamide]	100 µg/mL (≈ 317 µM)	50 µg/mL (≈ 158 µM)	0.4384	79 µM	25 µg/mL	346 µM	25 µg/mL (≈ 79.2 µM)	15.6 µM (≈ 4.93 µg/mL)	15.6 µM (≈ 4.93 µg/mL)	decreased intensity of the emission band at 686 nm	15.62/15.62 µmol/L	–	–
O=C(NCc1ccc(Cl)cc1)c1cnc(Cl)cn1 [Compound 3, 5-Chloro-N-(4-chlorobenzyl)pyrazine-2-carboxamide]	100 µg/mL (≈ 354 µM)	100 µg/mL (≈ 354 µM)	0.4150	44 µM	12.5 µg/mL	604 µM	100 µg/mL (≈ 354 µM)	125 µM (≈ 35.3 µg/mL)	125 µM (≈ 35.3 µg/mL)	–	–	–	–
COc1ccc(CNC(=O)c2cnc(Cl)cn2)cc1 [Compound 4, 5-Chloro-N-(4-methoxybenzyl)pyrazine-2-carboxamide]	50 µg/mL (≈ 180 µM)	100 µg/mL (≈ 360 µM)	0.1655	90 µM	25 µg/mL	–	100 µg/mL (≈ 360 µM)	250 µM (≈ 69.4 µg/mL)	250 µM (≈ 69.4 µg/mL)	–	–	–	–
O=C(NCc1ccccc1)c1cncc(Cl)n1 [Compound 5, N-Benzyl-6-chloropyrazine-2-carboxamide]	100 µg/mL (≈ 404 µM)	50 µg/mL (≈ 202 µM)	0.2002	50 µM	12.5 µg/mL	–	100 µg/mL (≈ 404 µM)	250 µM (≈ 61.9 µg/mL)	500 µM (≈ 124 µg/mL)	–	–	–	–
O=C(NCc1cccc(C(F)(F)F)c1)c1cncc(Cl)n1 [Compound 6, 6-Chloro-N-(3-trifluoromethylbenzyl)pyrazine-2-carboxamide]	100 µg/mL (≈ 317 µM)	100 µg/mL (≈ 317 µM)	0.4507	39 µM	12.5 µg/mL	1210 µM	25 µg/mL (≈ 79.2 µM)	62.5 µM (≈ 19.7 µg/mL)	125 µM (≈ 39.5 µg/mL)	–	–	quenching of their fluorescence at 334 nm	–
O=C(NCc1ccc(Cl)cc1)c1cncc(Cl)n1 [Compound 7, 6-Chloro-N-(4-chlorobenzyl)pyrazine-2-carboxamide]	12.5 µg/mL (≈ 44.3 µM)	100 µg/mL (≈ 354 µM)	0.4335	44 µM	12.5 µg/mL	–	100 µg/mL (≈ 354 µM)	125 µM (≈ 35.3 µg/mL)	125 µM (≈ 35.3 µg/mL)	–	–	–	–
COc1ccc(CNC(=O)c2cncc(Cl)n2)cc1 [Compound 8, 6-Chloro-N-(4-methoxybenzyl)pyrazine-2-carboxamide]	50 µg/mL (≈ 180 µM)	100 µg/mL (≈ 360 µM)	0.1838	22 µM	6.25 µg/mL	–	100 µg/mL (≈ 360 µM)	500 µM (≈ 139 µg/mL)	500 µM (≈ 139 µg/mL)	–	–	–	–
CC(C)(C)c1ncc(C(=O)NCc2ccccc2)nc1Cl [Compound 9, N-Benzyl-5-tert-butyl-6-chloropyrazine-2-carboxamide]	50 µg/mL (≈ 165 µM)	100 µg/mL (≈ 329 µM)	1.1215	82 µM	25 µg/mL	7.4 µM	25 µg/mL (≈ 82.3 µM)	250 µM (≈ 75.9 µg/mL)	500 µM (≈ 152 µg/mL)	–	–	–	–
CC(C)(C)c1ncc(C(=O)NCc2cccc(C(F)(F)F)c2)nc1Cl [Compound 10, 5-tert-Butyl-6-chloro-N-(3-trifluoromethylbenzyl)pyrazine-2-carboxamide]	25 µg/mL (≈ 67.2 µM)	25 µg/mL (≈ 67.2 µM)	1.3638	16 µM	6.25 µg/mL	36.3 µM	25 µg/mL (≈ 67.2 µM)	250 µM (≈ 92.9 µg/mL)	250 µM (≈ 92.9 µg/mL)	–	–	–	–
CC(C)(C)c1ncc(C(=O)NCc2ccc(Cl)cc2)nc1Cl [Compound 11, 5-tert-Butyl-6-chloro-N-(4-chlorobenzyl)pyrazine-2-carboxamide]	50 µg/mL (≈ 148 µM)	50 µg/mL (≈ 148 µM)	1.3511	36 µM	12.5 µg/mL	13.4 µM	50 µg/mL (≈ 148 µM)	250 µM (≈ 84.6 µg/mL)	500 µM (≈ 169 µg/mL)	–	–	–	–
COc1ccc(CNC(=O)c2cnc(C(C)(C)C)c(Cl)n2)cc1 [Compound 12, 5-tert-Butyl-6-chloro-N-(4-methoxybenzyl)pyrazine-2-carboxamide]	6.25 µg/mL (≈ 18.7 µM)	3.12 µg/mL (≈ 9.36 µM)	0.8071	18 µM	6.25 µg/mL	122 µM	12.5 µg/mL (≈ 37.4 µM)	250 µM (≈ 83.5 µg/mL)	500 µM (≈ 167 µg/mL)	–	–	–	–
CN(C)C(=O)Nc1ccc(Cl)c(Cl)c1 [DCMU, 3-(3,4-dichlorophenyl)-1,1-dimethylurea]	–	–	–	–	–	–	–	–	–	–	–	–	~1.9 µM and 1.9 µM
OC(Cn1cncn1)(Cn1cncn1)c1ccc(F)cc1F [FLU, fluconazole, reference compound]	–	–	–	–	–	–	–	1.95 µM (≈ 0.597 µg/mL)	3.91 µM (≈ 1.2 µg/mL)	–	–	–	–
NNC(=O)c1ccncc1 [INH, isoniazid, reference compound]	12.5 µg/mL (≈ 91.1 µM)	12.5 µg/mL (≈ 91.1 µM)	–	11 µM	1.56 µg/mL	–	12.5 to 25 µg/mL (≈ 91.1 to 182 µM)	–	–	–	–	–	–
NC(=O)c1cnccn1 [PZA, pyrazinamide, reference compound]	> 100 µg/mL	> 100 µg/mL	–	50 to 101 µM	6.25 to 12.5 µg/mL	–	> 100 µg/mL	–	–	–	–	–	–
